Data from patent US20120214847A1, “2-[1-PHENYL-5-HYDROXY-4a-SUBSTITUTED-HEXAHYDROCYCLOPENTA[F]INDAZOL-5-YL]ETHYL PHENYL DERIVATIVES AS GLUCOCORTICOID RECEPTOR LIGANDS” (Merck Sharp & Dohme Corp., priority 2009, published 2012).
pEC50: −log10 of the molar value.

Molecular target: T1, human GR (Homo sapiens, UniProt P04150)
T1 construct: naturally expresses the human GR; endogenous in cells
T1 sequence (P04150 1-777): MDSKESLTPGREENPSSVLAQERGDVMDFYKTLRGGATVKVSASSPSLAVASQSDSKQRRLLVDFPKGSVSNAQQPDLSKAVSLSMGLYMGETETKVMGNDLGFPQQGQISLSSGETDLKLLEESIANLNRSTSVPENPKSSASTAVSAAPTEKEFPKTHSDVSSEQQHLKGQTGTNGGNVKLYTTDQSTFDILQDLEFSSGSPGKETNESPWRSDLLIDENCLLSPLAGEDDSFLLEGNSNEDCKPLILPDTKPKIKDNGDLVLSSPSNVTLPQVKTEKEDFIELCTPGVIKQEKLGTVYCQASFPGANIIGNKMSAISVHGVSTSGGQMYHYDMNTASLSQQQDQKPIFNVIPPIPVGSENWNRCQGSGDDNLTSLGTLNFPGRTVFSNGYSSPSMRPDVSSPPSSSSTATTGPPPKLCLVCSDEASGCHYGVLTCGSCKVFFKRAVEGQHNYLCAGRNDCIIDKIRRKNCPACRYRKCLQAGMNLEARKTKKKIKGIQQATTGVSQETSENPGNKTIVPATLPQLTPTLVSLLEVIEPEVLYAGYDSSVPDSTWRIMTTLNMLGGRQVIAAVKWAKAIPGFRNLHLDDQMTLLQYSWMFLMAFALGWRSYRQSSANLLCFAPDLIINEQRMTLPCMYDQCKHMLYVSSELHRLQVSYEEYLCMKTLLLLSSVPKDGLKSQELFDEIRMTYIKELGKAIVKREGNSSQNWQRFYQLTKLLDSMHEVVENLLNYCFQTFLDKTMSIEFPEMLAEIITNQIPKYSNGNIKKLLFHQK
Experiment: Transrepression assay (GITAR), TNFα-β-lactamase reporter in U937 cells
Format: cell-based
Settings: for pEC50: IP = inflection point; for Emax: U-937, U937 cells
Summary of the method: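 U937 cells stably carrying TNFα promoter–β-lactamase, endogenous GR, preincubated with compound 30–45 min at 37° C., then stimulated with 5 ng/ml PMA plus 100 ng/ml LPS for ~18 h. CCF2-AM read-out; repression by 100 nM dexamethasone set as 100%.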

[1] = activity repressed by 100 nM dexamethasone alone set as 100%

| pEC50 (U937 cells) | Emax [1] [%] | Transrepression U937 Cells GITAR Emax (%) (U937 cells, activity repressed by 100 nM dexamethasone alone set as 100%) | SMILES |
| --- | --- | --- | --- |
| 7.13 | 88 | – | CCS(=O)(=O)c1ccccc1CC[C@]1(O)CCC2=Cc3c(cnn3-c3ccc(F)cc3)C[C@@]21C1CC1 [Example 59, (4aR,5R)-4a-Cyclopropyl-5-{2-[2-(ethylsulfonyl)phenyl]ethyl}-1-(4-fluorophenyl)-1,4,4a,5,6,7-hexahydrocyclopenta[f]indazol-5-ol] |
| 7.62 | 84 | – | CC[C@]12Cc3cnn(-c4ccc(F)cc4)c3C=C1CC[C@@]2(O)CCc1cccc(F)c1CC(N)=O [Example 60, 2-(2-{2-[(4aS,5R)-4a-Ethyl-1-(4-fluorophenyl)-5-hydroxy-1,4,4a,5,6,7-hexahydrocyclopenta[f]indazol-5-yl]ethyl}-6-fluorophenyl)acetamide] |
| 7.80 | 72 | – | NC(=O)Cc1c(F)cccc1CC[C@]1(O)CCC2=Cc3c(cnn3-c3ccc(F)cc3)C[C@@]21C1CC1 [Example 61, 2-(2-{2-[(4aR,5R)-4a-Cyclopropyl-1-(4-fluorophenyl)-5-hydroxy-1,4,4a,5,6,7-hexahydrocyclopenta[f]indazol-5-yl]ethyl}-6-fluorophenyl)acetamide] |
| 7.92 | 85 | – | CC[C@]12Cc3cnn(-c4ccc(F)cc4)c3C=C1CC[C@@]2(O)CCc1ncccc1S(=O)(=O)C(C)C [Example 62, (4aS,5R)-4a-Ethyl-1-(4-fluorophenyl)-5-{2-[3-(propan-2-ylsulfonyl)pyridin-2-yl]ethyl}-1,4,4a,5,6,7-hexahydrocyclopenta[f]indazol-5-ol] |
| 6.90 | 75 | – | O=S(=O)(c1ccccc1CC[C@]1(O)CCC2=Cc3c(cnn3-c3ccc(F)cc3)C[C@@]21C1CC1)C1CC1 [Example 63, (4aR,5R)-4a-Cyclopropyl-5-{2-[2-(cyclopropylsulfonyl)phenyl]ethyl}-1-(4-fluorophenyl)-1,4,4a,5,6,7-hexahydrocyclopenta[f]indazol-5-ol] |
| 7.14 | 77 | – | CC[C@]12Cc3cnn(-c4ccc(F)cc4)c3C=C1CC[C@@]2(O)CCc1nccc(OC)c1CC(N)=O [Example 64, 2-(2-{2-[(4aS,5R)-4a-Ethyl-1-(4-fluorophenyl)-5-hydroxy-1,4,4a,5,6,7-hexahydrocyclopenta[f]indazol-5-yl]ethyl}-4-methoxypyridin-3-yl)acetamide] |
| 7.74 | 71 | – | CC[C@]12Cc3cnn(-c4ccc(F)cc4)c3C=C1CC[C@@]2(O)CC(O)c1ccccn1 (stereo partly drawn) [Example 68, (4aS,5R)-4a-Ethyl-1-(4-fluorophenyl)-5-[2-hydroxy-2-(pyridin-2-yl)ethyl]-1,4,4a,5,6,7-hexahydrocyclopenta[f]indazol-5-ol] |
| 6.85 | 79 | – | CC[C@]12Cc3cnn(-c4ccc(F)cc4)c3C=C1CC[C@@]2(O)CC(O)c1ncccc1Cl (stereo partly drawn) [Example 70, (4aS,5R)-5-[2-(3-Chloropyridin-2-yl)-2-hydroxyethyl]-4a-ethyl-1-(4-fluorophenyl)-1,4,4a,5,6,7-hexahydrocyclopenta[f]indazol-5-ol] |
| 7.19 | 74 | – | CC[C@]12Cc3cnn(-c4ccc(F)cc4)c3C=C1CC[C@@]2(O)CC1OC(=O)c2ccccc21 (stereo partly drawn) [Example 71, 3-{[(4aS,5R)-4a-Ethyl-1-(4-fluorophenyl)-5-hydroxy-1,4,4a,5,6,7-hexahydrocyclopenta[f]indazol-5-yl]methyl}-2-benzofuran-1(3H)-one] |
| 6.64 | 51 | – | CC[C@]12Cc3cnn(-c4ccc(F)cc4)c3C=C1CC[C@@]2(O)CC(O)c1cc(C#N)ccn1 (stereo partly drawn) [Example 72, 2-{2-[(4aS,5R)-4a-Ethyl-1-(4-fluorophenyl)-5-hydroxy-1,4,4a,5,6,7-hexahydrocyclopenta[f]indazol-5-yl]-1-hydroxyethyl}pyridine-4-carbonitrile] |
| 6.70 | 71 | – | CC[C@]12Cc3cnn(-c4ccc(F)cc4)c3C=C1CC[C@@]2(O)CC(O)c1cncc(F)c1 (stereo partly drawn) [Example 73, (4aS,5R)-4a-Ethyl-1-(4-fluorophenyl)-5-[2-(5-fluoropyridin-3-yl)-2-hydroxyethyl]-1,4,4a,5,6,7-hexahydrocyclopenta[f]indazol-5-ol] |
| 6.99 | 72 | – | CC[C@]12Cc3cnn(-c4ccc(F)cc4)c3C=C1CC[C@@]2(O)CC(O)c1c(F)ccnc1Cl (stereo partly drawn) [Example 74, (4aS,5R)-5-[2-(2-Chloro-4-fluoropyridin-3-yl)-2-hydroxyethyl]-4a-ethyl-1-(4-fluorophenyl)-1,4,4a,5,6,7-hexahydrocyclopenta[f]indazol-5-ol] |
| 6.63 | 67 | – | CC[C@]12Cc3cnn(-c4ccccc4)c3C=C1CC[C@@]2(O)CC(O)c1cc(C#N)ccn1 (stereo partly drawn) [Example 75, 2-{2-[(4aS,5R)-4a-Ethyl-5-hydroxy-1-phenyl-1,4,4a,5,6,7-hexahydrocyclopenta[f]indazol-5-yl]-1-hydroxyethyl}pyridine-4-carbonitrile] |
| 6.56 | 64 | – | CC[C@]12Cc3cnn(-c4ccc(F)cc4)c3C=C1CC[C@@]2(O)CC(O)c1ncccc1F (stereo partly drawn) [Example 76, (4aS,5R)-4a-Ethyl-1-(4-fluorophenyl)-5-[2-(3-fluoropyridin-2-yl)-2-hydroxyethyl]-1,4,4a,5,6,7-hexahydrocyclopenta[f]indazol-5-ol] |
| 6.79 | – | 60 | CC[C@]12Cc3cnn(-c4ccc(F)cc4)c3C=C1CC[C@@]2(O)CC(O)c1ncccc1F (stereo partly drawn) [Example 77, (4aS,5R)-4a-Ethyl-1-(4-fluorophenyl)-5-[2-(3-fluoropyridin-2-yl)-2-hydroxyethyl]-1,4,4a,5,6,7-hexahydrocyclopenta[f]indazol-5-ol] |
| 6.67 | 49 | – | OC(C[C@]1(O)CCC2=Cc3c(cnn3-c3ccc(F)cc3)C[C@@]21C1CC1)c1ccccn1 (stereo partly drawn) [Example 78, (4aR,5R)-4a-Cyclopropyl-1-(4-fluorophenyl)-5-[2-hydroxy-2-(pyridin-2-yl)ethyl]-1,4,4a,5,6,7-hexahydrocyclopenta[f]indazol-5-ol] |

| SMILES | pEC50 (U937 cells) | Emax [1] [%] | Transrepression U937 Cells GITAR Emax (%) (U937 cells, activity repressed by 100 nM dexamethasone alone set as 100%) |
| --- | --- | --- | --- |
| CC[C@]12Cc3cnn(-c4ccc(F)cc4)c3C=C1CC[C@@]2(O)CCc1nccc(OC)c1C(F)C(N)=O (stereo partly drawn) [Example 65, 2-(2-{2-[(4aS,5R)-4a-Ethyl-1-(4-fluorophenyl)-5-hydroxy-1,4,4a,5,6,7-hexahydrocyclopenta[f]indazol-5-yl]ethyl}-4-methoxypyridin-3-yl)-2-fluoroacetamide] | 6.71 | 63 | – |
| COc1ccnc(CC[C@]2(O)CCC3=Cc4c(cnn4-c4ccc(F)cc4)C[C@@]32C2CC2)c1C(F)C(N)=O (stereo partly drawn) [Example 66, 2-(2-{2-[(4aR,5R)-4a-Cyclopropyl-1-(4-fluorophenyl)-5-hydroxy-1,4,4a,5,6,7-hexahydrocyclopenta[f]indazol-5-yl]ethyl}-4-methoxypyridin-3-yl)-2-fluoroacetamide] | 7.92 | 76 | – |
